Three compounds from ChEMBL document CHEMBL1201862, “PubChem BioAssay data set” (2004) can be followed below.

The nature of test [1]: cytotoxicity toward MDA-MB-231 breast cancer cells – cell-based, CellTiter-Glo luminescence, cherry-pick, cytotoxicity control for RAD54 inhibitor project, dose response (AID 651692). It is filed as functional. For orientation: ATP-based viability assays read luminescence as a measure of living cells.
The target in test [2] is Delta-type opioid receptor (Homo sapiens, UniProt P41143). Nature of the test: Counterscreen for agonists of heterodimerization of the mu 1 (OPRM1) and delta 1 (OPRD1) opioid receptors: Luminescence-based cell-based high throughput dose response assay to identify agonists of OPRD1 homodimerization. [Related pubchem assays (depositor defined):AID504326, AID504355, AID504692, AID504904, AID504905]. It is filed as functional. On the technique in general: Counterscreens check selectivity or assay interference.
Sequence of Delta-type opioid receptor (P41143 whole entry): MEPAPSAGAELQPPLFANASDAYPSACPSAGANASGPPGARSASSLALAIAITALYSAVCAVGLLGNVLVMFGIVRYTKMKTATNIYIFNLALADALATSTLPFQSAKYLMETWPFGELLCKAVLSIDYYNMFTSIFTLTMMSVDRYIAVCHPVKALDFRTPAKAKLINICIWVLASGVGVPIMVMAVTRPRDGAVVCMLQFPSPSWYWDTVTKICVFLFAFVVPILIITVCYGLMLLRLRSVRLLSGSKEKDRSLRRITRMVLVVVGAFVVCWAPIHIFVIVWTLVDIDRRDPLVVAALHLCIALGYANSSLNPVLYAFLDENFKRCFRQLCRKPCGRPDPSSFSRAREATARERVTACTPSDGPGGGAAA

Test [3] concerns the target Dual specificity protein phosphatase 6 (Rattus norvegicus, UniProt Q64346). Kind of test: inhibition of rat DUSP6 enzyme activity – biochemical, in vitro, primary screen (AID 425).
The target of test [4] is 1-phosphatidylinositol 4,5-bisphosphate phosphodiesterase beta-3 (Homo sapiens, UniProt Q01970). Nature of the test: Fluorescence-based biochemical high throughput dose response assay to identify inhibitors of phospholipase C isozymes (PLC-B3).
Test [5] has as its target T1, Mannose-6-phosphate isomerase (Homo sapiens, UniProt P34949).
T1 sequence (P34949 whole entry): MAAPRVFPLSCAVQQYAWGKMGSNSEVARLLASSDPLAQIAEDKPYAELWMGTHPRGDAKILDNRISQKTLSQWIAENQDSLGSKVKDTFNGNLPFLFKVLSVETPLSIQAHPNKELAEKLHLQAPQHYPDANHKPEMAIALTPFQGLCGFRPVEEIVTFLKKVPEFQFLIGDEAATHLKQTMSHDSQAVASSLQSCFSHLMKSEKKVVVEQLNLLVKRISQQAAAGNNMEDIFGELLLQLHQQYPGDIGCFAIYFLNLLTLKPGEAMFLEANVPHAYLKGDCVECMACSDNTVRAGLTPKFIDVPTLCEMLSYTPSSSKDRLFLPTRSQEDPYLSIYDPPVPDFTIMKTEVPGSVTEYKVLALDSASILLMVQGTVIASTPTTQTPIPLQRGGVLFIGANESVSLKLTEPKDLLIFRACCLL
Nature of the test: MPI inhibition at elevated mannose 6-phosphate – biochemical, fluorescence intensity, high mannose 6-phosphate, primary screen (AID 1220).

The target of test [6] is Mu-type opioid receptor (Homo sapiens, UniProt P35372). Nature of the test: Counterscreen for agonists of heterodimerization of the mu 1 (OPRM1) and delta 1 (OPRD1) opioid receptors: Luminescence-based cell-based high throughput dose response assay to identify agonists of OPRM1 homodimerization. The class given is functional.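 Further: U2OS cells expressing OPRM1 and beta-arrestin as split beta-galactosidase partners.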
Sequence of Mu-type opioid receptor (P35372 whole entry): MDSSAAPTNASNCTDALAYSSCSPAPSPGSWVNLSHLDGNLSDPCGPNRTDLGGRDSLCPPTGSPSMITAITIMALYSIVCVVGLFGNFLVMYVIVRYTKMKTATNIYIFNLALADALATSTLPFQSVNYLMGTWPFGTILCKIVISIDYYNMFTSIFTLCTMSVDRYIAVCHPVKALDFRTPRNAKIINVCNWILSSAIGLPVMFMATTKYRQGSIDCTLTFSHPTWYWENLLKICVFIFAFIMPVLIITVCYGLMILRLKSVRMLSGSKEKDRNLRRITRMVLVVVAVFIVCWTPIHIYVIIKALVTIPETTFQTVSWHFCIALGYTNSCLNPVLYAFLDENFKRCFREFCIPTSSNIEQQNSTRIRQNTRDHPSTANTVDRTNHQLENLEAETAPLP
Test [7] deals with T2, Sentrin-specific protease 7 (Homo sapiens, UniProt Q9BQF6).
T2 sequence (Q9BQF6 whole entry): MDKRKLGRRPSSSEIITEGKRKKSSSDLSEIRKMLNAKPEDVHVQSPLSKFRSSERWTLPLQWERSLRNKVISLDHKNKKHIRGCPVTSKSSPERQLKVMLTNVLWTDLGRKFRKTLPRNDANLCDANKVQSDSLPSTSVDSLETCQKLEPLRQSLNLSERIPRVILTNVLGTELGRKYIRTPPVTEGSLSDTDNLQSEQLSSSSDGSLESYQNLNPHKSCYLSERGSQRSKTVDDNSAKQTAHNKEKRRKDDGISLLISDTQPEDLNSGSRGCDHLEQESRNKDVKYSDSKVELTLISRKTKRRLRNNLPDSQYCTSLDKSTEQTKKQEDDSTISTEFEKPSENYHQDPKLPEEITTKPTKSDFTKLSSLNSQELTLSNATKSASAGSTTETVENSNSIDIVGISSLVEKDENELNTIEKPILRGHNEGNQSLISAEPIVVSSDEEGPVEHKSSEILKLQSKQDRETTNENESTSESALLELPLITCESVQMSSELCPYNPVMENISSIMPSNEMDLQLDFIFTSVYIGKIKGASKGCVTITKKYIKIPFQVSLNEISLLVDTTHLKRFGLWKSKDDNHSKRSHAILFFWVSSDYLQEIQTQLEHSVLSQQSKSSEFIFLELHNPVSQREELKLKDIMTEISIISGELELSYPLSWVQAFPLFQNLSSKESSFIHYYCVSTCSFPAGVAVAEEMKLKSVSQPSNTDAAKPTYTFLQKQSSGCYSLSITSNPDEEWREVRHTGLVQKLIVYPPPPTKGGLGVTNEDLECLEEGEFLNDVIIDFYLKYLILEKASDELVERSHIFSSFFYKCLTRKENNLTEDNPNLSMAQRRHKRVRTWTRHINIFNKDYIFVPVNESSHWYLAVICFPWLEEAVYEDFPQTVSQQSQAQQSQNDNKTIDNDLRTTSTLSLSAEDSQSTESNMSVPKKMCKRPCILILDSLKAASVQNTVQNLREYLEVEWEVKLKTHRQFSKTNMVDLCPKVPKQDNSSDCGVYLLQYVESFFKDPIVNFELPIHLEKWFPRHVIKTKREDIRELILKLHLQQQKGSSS
It is filed as functional.

Test [8] addresses T3, Serine/threonine-protein phosphatase (Homo sapiens, UniProt Q9BPW0).
T3 sequence (Q9BPW0 whole entry): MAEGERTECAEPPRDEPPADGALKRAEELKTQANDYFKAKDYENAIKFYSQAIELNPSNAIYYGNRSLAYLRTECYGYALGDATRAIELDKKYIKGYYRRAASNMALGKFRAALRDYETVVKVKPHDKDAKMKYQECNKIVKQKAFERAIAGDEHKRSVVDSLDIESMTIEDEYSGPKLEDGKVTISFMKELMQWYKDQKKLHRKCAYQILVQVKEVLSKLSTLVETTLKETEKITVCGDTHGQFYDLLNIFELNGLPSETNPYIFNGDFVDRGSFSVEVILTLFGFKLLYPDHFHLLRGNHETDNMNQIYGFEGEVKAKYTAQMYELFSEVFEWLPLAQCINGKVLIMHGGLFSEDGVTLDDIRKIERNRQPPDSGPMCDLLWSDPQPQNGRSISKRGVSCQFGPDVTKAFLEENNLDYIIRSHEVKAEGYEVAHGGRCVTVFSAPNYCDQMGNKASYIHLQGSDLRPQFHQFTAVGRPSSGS
Kind of test: inhibition of protein phosphatase 5 activity – biochemical, fluorescence, dose response (AID 2395).

The target in test [9] is Tyrosine-protein kinase Blk (Homo sapiens, UniProt P51451). The class given is functional.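 Further: obtained as one member of a kinome-wide kinase assay panel.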
Sequence of Tyrosine-protein kinase Blk (P51451 whole entry): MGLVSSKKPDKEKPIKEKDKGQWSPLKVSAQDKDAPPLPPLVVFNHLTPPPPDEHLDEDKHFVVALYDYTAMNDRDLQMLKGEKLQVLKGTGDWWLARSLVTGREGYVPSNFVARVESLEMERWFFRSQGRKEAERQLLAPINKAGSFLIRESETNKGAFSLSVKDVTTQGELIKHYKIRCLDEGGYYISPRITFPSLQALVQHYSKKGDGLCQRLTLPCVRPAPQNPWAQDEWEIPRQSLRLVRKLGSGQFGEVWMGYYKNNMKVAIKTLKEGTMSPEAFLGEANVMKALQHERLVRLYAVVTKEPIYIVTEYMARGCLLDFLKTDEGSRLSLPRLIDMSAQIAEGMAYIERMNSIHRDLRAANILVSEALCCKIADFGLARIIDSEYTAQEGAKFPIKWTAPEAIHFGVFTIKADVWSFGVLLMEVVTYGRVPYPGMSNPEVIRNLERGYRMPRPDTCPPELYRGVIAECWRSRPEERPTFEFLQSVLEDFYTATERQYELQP
For test [10], the target named is Insulin receptor (Homo sapiens, UniProt P06213). The class given is functional.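 Further: insulin receptor kinase tested as one member of a kinome-wide kinase panel.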
Test [11] has as its target Misshapen-like kinase 1 (Homo sapiens, UniProt Q8N4C8). It is filed as functional.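 Further: kinome panel screen with MINK as the panel member.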
For test [12], the target named is 3-phosphoinositide-dependent protein kinase 1 (Homo sapiens, UniProt O15530). The class given is functional.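 Further: value comes from the Navigating the Kinome panel, PDPK1 member.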
Sequence of 3-phosphoinositide-dependent protein kinase 1 (O15530 whole entry): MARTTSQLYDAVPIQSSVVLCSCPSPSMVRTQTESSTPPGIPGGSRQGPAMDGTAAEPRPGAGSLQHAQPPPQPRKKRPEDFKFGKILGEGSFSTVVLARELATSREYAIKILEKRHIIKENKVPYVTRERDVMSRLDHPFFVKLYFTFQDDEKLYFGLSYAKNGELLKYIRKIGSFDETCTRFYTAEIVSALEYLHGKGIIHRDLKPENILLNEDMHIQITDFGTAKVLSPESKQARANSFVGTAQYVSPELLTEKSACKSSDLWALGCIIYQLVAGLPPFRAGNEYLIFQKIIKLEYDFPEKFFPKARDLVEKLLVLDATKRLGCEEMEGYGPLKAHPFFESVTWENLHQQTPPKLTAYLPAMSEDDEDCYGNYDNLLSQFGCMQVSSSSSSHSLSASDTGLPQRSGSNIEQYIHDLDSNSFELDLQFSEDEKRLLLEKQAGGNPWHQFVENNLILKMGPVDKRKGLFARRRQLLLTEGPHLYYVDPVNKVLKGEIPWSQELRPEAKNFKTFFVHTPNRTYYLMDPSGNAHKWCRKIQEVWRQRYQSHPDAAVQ
In test [13] the target is Vascular endothelial growth factor receptor 3 (Homo sapiens, UniProt P35916). It is filed as functional.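 Further: value from a kinome-wide profiling panel, with FLT4 as the panel member.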
Test [14] addresses RAC-gamma serine/threonine-protein kinase (Homo sapiens, UniProt Q9Y243). It is filed as functional.
The target of test [15] is Mitogen-activated protein kinase kinase kinase kinase 5 (Homo sapiens, UniProt Q9Y4K4). It is filed as functional.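 Further: measured as one member of a kinome-spanning kinase panel.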
Sequence of Mitogen-activated protein kinase kinase kinase kinase 5 (Q9Y4K4 whole entry): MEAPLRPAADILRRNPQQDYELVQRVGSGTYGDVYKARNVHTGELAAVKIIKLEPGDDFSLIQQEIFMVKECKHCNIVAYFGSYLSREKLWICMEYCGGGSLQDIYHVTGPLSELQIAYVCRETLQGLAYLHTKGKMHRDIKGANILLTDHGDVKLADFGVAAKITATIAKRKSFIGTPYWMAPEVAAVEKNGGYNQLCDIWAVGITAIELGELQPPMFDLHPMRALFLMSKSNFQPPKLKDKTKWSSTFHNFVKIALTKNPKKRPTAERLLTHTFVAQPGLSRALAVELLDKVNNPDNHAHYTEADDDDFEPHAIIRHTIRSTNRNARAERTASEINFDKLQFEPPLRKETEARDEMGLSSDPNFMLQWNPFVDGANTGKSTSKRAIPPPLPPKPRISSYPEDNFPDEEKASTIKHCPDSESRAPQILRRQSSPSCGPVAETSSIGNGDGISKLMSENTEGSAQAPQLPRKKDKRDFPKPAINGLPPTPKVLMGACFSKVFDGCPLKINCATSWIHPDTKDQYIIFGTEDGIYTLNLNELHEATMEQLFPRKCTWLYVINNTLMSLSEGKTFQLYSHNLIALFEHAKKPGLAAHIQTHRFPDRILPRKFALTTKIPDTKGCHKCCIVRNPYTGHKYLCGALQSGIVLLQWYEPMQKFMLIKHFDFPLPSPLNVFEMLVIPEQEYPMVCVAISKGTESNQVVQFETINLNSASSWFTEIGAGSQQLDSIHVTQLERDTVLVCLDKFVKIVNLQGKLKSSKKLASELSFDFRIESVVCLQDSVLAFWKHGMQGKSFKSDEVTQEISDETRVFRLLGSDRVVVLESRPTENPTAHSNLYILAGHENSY
The target of test [16] is MAP kinase-activated protein kinase 5 (Homo sapiens, UniProt Q8IW41). It is filed as functional.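 Further: measured as one member of a kinome panel.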

Activity calls are given as the source filed them.

Sequence of Misshapen-like kinase 1 (Q8N4C8 whole entry): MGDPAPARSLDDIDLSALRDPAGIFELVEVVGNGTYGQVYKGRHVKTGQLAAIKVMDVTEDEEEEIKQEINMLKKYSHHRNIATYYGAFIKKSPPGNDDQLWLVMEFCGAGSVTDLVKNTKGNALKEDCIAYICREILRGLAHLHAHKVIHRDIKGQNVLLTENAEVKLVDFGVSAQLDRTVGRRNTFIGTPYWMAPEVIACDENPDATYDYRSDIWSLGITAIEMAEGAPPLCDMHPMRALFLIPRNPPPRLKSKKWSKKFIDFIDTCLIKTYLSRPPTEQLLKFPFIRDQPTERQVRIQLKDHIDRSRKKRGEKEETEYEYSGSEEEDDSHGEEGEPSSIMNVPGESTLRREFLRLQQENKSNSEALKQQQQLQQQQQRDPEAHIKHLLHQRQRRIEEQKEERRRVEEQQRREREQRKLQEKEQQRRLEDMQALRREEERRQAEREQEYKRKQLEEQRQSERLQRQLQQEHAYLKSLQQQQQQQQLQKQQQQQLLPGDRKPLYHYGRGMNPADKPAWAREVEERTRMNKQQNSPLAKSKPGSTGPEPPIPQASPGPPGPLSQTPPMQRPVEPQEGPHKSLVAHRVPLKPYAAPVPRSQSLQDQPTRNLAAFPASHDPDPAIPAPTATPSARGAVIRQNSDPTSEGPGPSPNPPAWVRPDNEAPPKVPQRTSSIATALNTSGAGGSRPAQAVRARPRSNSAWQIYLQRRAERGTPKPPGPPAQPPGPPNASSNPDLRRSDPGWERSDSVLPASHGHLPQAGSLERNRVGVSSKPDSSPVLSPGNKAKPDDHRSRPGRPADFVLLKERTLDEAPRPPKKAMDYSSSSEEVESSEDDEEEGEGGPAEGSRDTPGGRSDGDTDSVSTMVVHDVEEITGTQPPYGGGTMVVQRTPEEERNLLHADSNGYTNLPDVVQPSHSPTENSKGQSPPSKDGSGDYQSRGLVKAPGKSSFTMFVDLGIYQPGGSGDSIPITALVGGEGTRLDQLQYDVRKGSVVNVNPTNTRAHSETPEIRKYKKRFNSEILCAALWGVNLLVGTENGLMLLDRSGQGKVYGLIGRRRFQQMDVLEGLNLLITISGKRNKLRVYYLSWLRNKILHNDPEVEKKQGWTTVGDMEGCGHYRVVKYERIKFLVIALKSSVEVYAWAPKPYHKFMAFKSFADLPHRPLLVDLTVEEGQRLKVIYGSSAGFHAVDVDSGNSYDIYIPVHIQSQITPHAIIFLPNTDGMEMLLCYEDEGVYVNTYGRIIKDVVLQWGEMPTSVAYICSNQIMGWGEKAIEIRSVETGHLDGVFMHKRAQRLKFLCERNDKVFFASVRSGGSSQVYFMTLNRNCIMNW
Sequence of Dual specificity protein phosphatase 6 (Q64346 whole entry): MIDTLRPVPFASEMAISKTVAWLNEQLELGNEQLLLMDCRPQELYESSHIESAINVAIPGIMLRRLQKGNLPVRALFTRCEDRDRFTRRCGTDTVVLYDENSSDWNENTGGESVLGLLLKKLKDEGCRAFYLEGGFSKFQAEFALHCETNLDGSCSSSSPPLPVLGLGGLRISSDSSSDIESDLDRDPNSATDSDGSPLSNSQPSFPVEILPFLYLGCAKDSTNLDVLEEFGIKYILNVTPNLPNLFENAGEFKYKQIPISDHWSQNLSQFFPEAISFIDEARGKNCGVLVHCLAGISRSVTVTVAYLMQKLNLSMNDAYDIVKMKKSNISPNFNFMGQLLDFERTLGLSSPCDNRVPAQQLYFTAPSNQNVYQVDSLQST
Sequence of RAC-gamma serine/threonine-protein kinase (Q9Y243 whole entry): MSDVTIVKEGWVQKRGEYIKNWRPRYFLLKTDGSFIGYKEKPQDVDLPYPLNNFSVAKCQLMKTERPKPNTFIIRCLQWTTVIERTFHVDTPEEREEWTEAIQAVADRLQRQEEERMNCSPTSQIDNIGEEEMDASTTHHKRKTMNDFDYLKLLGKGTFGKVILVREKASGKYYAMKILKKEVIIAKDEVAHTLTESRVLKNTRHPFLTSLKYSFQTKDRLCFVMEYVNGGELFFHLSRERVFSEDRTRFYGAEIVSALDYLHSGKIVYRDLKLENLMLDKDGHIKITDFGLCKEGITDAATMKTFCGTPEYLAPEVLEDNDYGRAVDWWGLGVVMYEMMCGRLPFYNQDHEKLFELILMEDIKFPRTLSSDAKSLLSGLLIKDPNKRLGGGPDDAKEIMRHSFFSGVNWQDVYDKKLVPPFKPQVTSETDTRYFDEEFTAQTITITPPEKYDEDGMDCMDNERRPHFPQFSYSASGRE

With `CCCc1nc2c(=O)n(C)c(=O)nc-2n(C)n1`, in test [1], the half-maximal activity concentration (AC50) – broadly, the midpoint of the concentration-response curve, whichever way the signal moves – is 2.71 µM (active). In addition, the EC50 in test [2] and in test [6] was > 92.5 µM (inactive) throughout. Also, the values for the IC50 in test [3], in test [4] and in [5] were < 1.23 µM (not active), > 122 µM (inactive) and 13.2 µM (active), respectively.

On to `CC(=O)c1ccc(NC2=C(N3CCOCC3)C(=O)c3ccccc3C2=O)cc1`, for which the concentration for half-maximal inhibition (IC50) (commonly the midpoint of a concentration-inhibition curve) is 18 µM (active) in test [7] and 19.3 µM (not active) in [8].

Consider `COc1cc2ncn(-c3cc(OCc4ccccc4C(F)(F)F)c(C(N)=O)s3)c2cc1OC` [GW843682X], for which the Ki (commonly a measure of affinity in units of concentration, obtained from inhibition or displacement) in test [9] is > 1.58 µM (inactive); in test [10], > 5.01 µM (inactive); in test [11], > 7.94 µM (inactive); in [12], > 3.98 µM (inactive); in [13], 0.1 µM (active); in [14] it was > 10 µM (inactive). In addition, the inhibition constant (Ki) in test [15] is 0.2 µM (active); in [16], 0.0631 µM (active).
